Earlier results in patent publication US20090092650A1, “Sustained Delivery Formulations of Octreotide Compounds” (priority 2004, published 2009).

Details: Marbach et al. 1992

SMILES: C[C@@H](O)[C@@H]1NC(=O)[C@H](CCCCN)NC(=O)[C@@H](Cc2c[nH]c3ccccc23)NC(=O)[C@H](Cc2ccccc2)NC(=O)[C@@H](NC(=O)[C@H](N)Cc2ccccc2)CSSC[C@@H](C(=O)N[C@H](CO)[C@@H](C)O)NC1=O [octreotide]
- Therapeutic plasma level: 0.3 ng/mL
